Consider 66 compounds from the supplement of paper PMC3493320.

Bounds are passed on as bounds.

This assay concerns NCI-H295R. Briefly: IC50 (antiproliferative, ATP content). The conditions noted are these: 48 h. The essentials: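 Cell viability of adrenocortical carcinoma cells was assessed as ATP by CellTiter-Glo luminescence. Cells at 1500 per well in 1536-well plates, in serum-free DMEM with ITS, received compounds by pin transfer at 8 final concentrations (0.6 nM–46 µM) after overnight culture and were then held 48 h at 37 °C, 5% CO2. IC50 was calculated by logistic fitting against vehicle and positive-control wells, compounds with no concentration response being recorded as above the top dose.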
With `CN(C)N=Nc1nc[nH]c1C(N)=O`, the IC50 (usually the concentration that gives 50% inhibition) was more than 46 µM.

In the case of `Clc1ccc(C(Cn2ccnc2)OCc2c(Cl)cccc2Cl)c(Cl)c1` (stereo unspecified), the concentration for half-maximal inhibition (IC50) is more than 46 µM.

On to `CCCCN(CCCC)CCCOC(=O)c1ccc(N)cc1`, for which the half-maximal inhibitory concentration (IC50) is more than 46 µM.

The compound `CCC(C)(C)c1ccc(O)cc1` came in with an IC50 of more than 46 µM.

Consider `CC1=NN(c2ccccc2)C(=O)C1`, for which the 50% inhibitory concentration (IC50) is more than 46 µM.

For the compound `CCCCCCCCCCCC(=O)OC[C@@H](O)[C@H]1OC[C@H](O)[C@H]1O`, the half-maximal inhibitory concentration (IC50) was more than 46 µM.

The compound `COc1ccc2c3c1O[C@H]1C[C@@H](O)C=C[C@@]31CCN(C)C2` displayed a concentration for half-maximal inhibition (IC50) of more than 46 µM.

In turn, `Cc1noc(NS(=O)(=O)c2ccc(N)cc2)c1C` came in with an IC50 of more than 46 µM.

In turn, `N[C@H](C(=O)O)[C@@H](O)c1ccc(O)c(O)c1` returned an IC50 of more than 46 µM.

For `C[C@@H](Cc1ccccc1)N(C)C`, the IC50 is more than 46 µM.

As to `O=C(OOC(=O)c1ccccc1)c1ccccc1`, the IC50 was more than 46 µM.

In turn, `CN1CCN(c2c(F)cc3c(=O)c(C(=O)O)cn4c3c2SCC4)CC1.Cl` gave an IC50 of more than 46 µM.

As to `Cc1nc2c([nH]1)c(=O)n(C)c(=O)n2Cc1ccco1`, the IC50 is more than 46 µM.

The compound `CCCCCCOc1ccccc1C(N)=O` returned an IC50 of more than 46 µM.

`O=C(Nc1ccc(C(=O)O)c(O)c1)c1ccccc1` gave a half-maximal inhibitory concentration (IC50) of more than 46 µM.

Consider `CN1C(=O)CN=C(c2ccccc2)c2cc([N+](=O)[O-])ccc21`, for which the 50% inhibitory concentration (IC50) was more than 46 µM.

In turn, `CCn1cc(C(=O)O)c(=O)c2cnc(N3CCNCC3)nc21` registered an IC50 of more than 46 µM.

Compound `C[C@@H]1C[C@H]2[C@@H]3CCC4=CC(=O)C=C[C@]4(C)[C@@]3(F)[C@@H](O)C[C@]2(C)[C@@]1(O)C(=O)COC(=O)c1cccc(S(=O)(=O)[O-])c1.[Na+]` gave an IC50 of more than 46 µM.

`COc1ccccc1N1CCN(CCCCNC(=O)c2ccc(-c3ccc(C(C)=O)cc3)cc2)CC1` had an IC50 of more than 46 µM.

Consider `[H][C@@]1(CC\C3=C(C4=CC=CS4)/C2=CC=CS2)[N@+](CCCC1)(C3)C.[Br-]`, for which the IC50 is more than 46 µM.

With `Cc1c(Cl)c(=O)oc2cc(OP(=O)(OCCCl)OCCCl)ccc12`, the IC50 was more than 46 µM.

`CC(C(=O)O)c1ccc(C(=O)c2cccs2)cc1` (stereo unspecified) showed an IC50 of more than 46 µM.

`CN1CCCC(CC2c3ccccc3Sc3ccccc32)C1.Cl` (stereo unspecified): the IC50 is more than 46 µM.

Turning to `CN(C)[C@@H]1C(O)=C(C(N)=O)C(=O)[C@@]2(O)C(O)=C3C(=O)c4c(O)cccc4[C@@](C)(O)[C@H]3[C@H](O)[C@@H]12.O.O`, the IC50 is more than 46 µM.

The compound `CN(CCO)CC(O)Cn1cnc2c1c(=O)n(C)c(=O)n2C.O=C(O)c1cccnc1` (stereo unspecified) displayed an IC50 of more than 46 µM.

The compound `COc1c(O)cc2c(c1O)[C@@H]1O[C@H](CO)[C@@H](O)[C@H](O)[C@H]1OC2=O.O` came in with an IC50 of more than 46 µM.

With `CN1C(=O)OC(C)(C)C1=O`, the IC50 is more than 46 µM.

`CN(C)C(=O)Nc1ccc(Cl)c(Cl)c1` showed an IC50 of more than 46 µM.

On to `CCCCCCCCCCCC(=O)N(CCO)CCO`, for which the IC50 was more than 46 µM.

In the case of `CCCCCCCCCCCC(=O)[O][Sn]([CH2]CCC)([CH2]CCC)[O]C(=O)CCCCCCCCCCC`, the IC50 is more than 46 µM.

On to `O=C(O)COc1ccccc1`, for which the IC50 was more than 46 µM.

In turn, `Oc1ncnc2[nH]ncc12` came in with a half-inhibitory concentration (IC50) of more than 46 µM.

The compound `CC(N)C12CC3CC(CC(C3)C1)C2.Cl` (stereo unspecified) came in with a concentration for half-maximal inhibition (IC50) of more than 46 µM.

Regarding `CN1CCN(CC(=O)N2c3ccccc3C(=O)Nc3cccnc32)CC1`, the 50% inhibitory concentration (IC50) was more than 46 µM.

In turn, `CNNCc1ccc(C(=O)NC(C)C)cc1.Cl` displayed a 50% inhibitory concentration (IC50) of more than 46 µM.

In turn, `CSc1ccc(C(=O)c2[nH]c(=O)[nH]c2C)cc1` had an IC50 of more than 46 µM.

`CC(C)(Sc1cc(C(C)(C)C)c(O)c(C(C)(C)C)c1)Sc1cc(C(C)(C)C)c(O)c(C(C)(C)C)c1` returned an IC50 of more than 46 µM.

`CN(c1nccc(=O)[nH]1)C1CCN(c2nc3ccccc3n2Cc2ccc(F)cc2)CC1` had an IC50 of more than 46 µM.

`O=C([O-])CN(CCN(CC(=O)[O-])CC(=O)[O-])CC(=O)[O-].[Fe+3].[Na+]` registered an IC50 of more than 46 µM.

In turn, `O=P(O)(O)O` came in with a half-maximal inhibitory concentration (IC50) of more than 46 µM.

Turning to `Cl.NCCc1cc(O)c(O)cc1O`, the concentration for half-maximal inhibition (IC50) was more than 46 µM.

The compound `CN(C)CCN(Cc1cccs1)c1ccccn1.Cl` yielded an IC50 of more than 46 µM.

`Cn1nnnc1SCC1=C(C(=O)[O-])N2C(=O)[C@@H](NC(=O)[C@H](O)c3ccccc3)[C@H]2SC1.[Na+]` yielded an IC50 of more than 46 µM.

As for `CCCCCCCCCC(=O)O[C@H]2CC[C@H]3[C@@H]4CC\C1=C\C(=O)CC[C@@H]1[C@H]4CC[C@]23C`, the IC50 was more than 46 µM.

In turn, `Cl.O=C(OCC(O)CO)c1ccccc1Nc1ccnc2cc(Cl)ccc12` (stereo unspecified) had an IC50 of more than 46 µM.

Compound `COc1ccc2[nH]cc(CCNC(C)=O)c2c1` had an IC50 of more than 46 µM.

On to `NC(=O)N1c2ccccc2C=Cc2ccccc21`, for which the IC50 was more than 46 µM.

Compound `NC(=O)N[C@@H](CCC(=O)O)C(=O)O` came in with a half-maximal inhibitory concentration (IC50) of more than 46 µM.

For `CCOC(CN1CCN(CC(C)C(=O)c2ccccc2)CC1)c1ccccc1.Cl.Cl` (stereo unspecified), the half-maximal inhibitory concentration (IC50) was more than 46 µM.

`CC(=O)c1ccc2c(c1)N(CCCN(C)C)c1ccccc1S2.O=C(O)/C=C/C(=O)O` displayed an IC50 of more than 46 µM.

`Cc1ccc(C(C)(C)c2ccc(C)cc2)cc1` gave an IC50 of more than 46 µM.

In turn, `CCSc1ccc2c(c1)N(CCCN1CCN(C)CC1)c1ccccc1S2.O=C(O)CC(O)C(=O)O.O=C(O)CC(O)C(=O)O` gave a concentration for half-maximal inhibition (IC50) of more than 46 µM.

The compound `CC(=O)[C@]2(CC[C@H]3[C@@H]4C[C@H](C)\C1=C\C(=O)CC[C@]1(C)[C@H]4CC[C@]23C)OC(C)=O` showed a half-maximal inhibitory concentration (IC50) of more than 46 µM.

In turn, `CCC1(C)CC(=O)NC1=O` (stereo unspecified) gave a half-inhibitory concentration (IC50) of more than 46 µM.

For the compound `CC(NC(C)(C)C)C(=O)c1cccc(Cl)c1.Cl` (stereo unspecified), the IC50 was more than 46 µM.

`C[C@]12C=CC(=O)C=C1[C@@H](F)C[C@@H]1[C@@H]2[C@@H](O)C[C@@]2(C)[C@H]1CC[C@]2(O)C(=O)CO`: the IC50 is more than 46 µM.

In the case of `CCOC(=O)[C@H](CCc1ccccc1)N[C@@H](C)C(=O)N1Cc2ccccc2C[C@H]1C(=O)O.Cl`, the concentration for half-maximal inhibition (IC50) is more than 46 µM.

For the compound `CCCCCCCCCCCCCCCCCCOCC(O)CO` (stereo unspecified), the IC50 was more than 46 µM.

On to `CC(=O)N[C@H]1C(O)O[C@H](CO)[C@@H](O)[C@@H]1O` (stereo partly specified), for which the IC50 was more than 46 µM.

As for `O=[C@@](C)[C@@H]3[C@]2(C)[C@](CC3)([H])[C@@]1([H])[C@@](CC2)([H])[C@](CC[C@](O)(C)C4)(C)[C@@]4([H])CC1`, the 50% inhibitory concentration (IC50) is more than 46 µM.

`O=C3N1/C(=C(\CS[C@@H]1[C@@H]3NC(=O)Cn2cnnn2)CSc4nnc(C)s4)C(O)=O`: the IC50 is more than 46 µM.

As for `C=CCCCCCCCCC(=O)OC`, the half-inhibitory concentration (IC50) was more than 46 µM.

For `O=C(CO)[C@@H](O)[C@H](O)[C@@H](O)C(=O)[O-].O=C(CO)[C@@H](O)[C@H](O)[C@@H](O)C(=O)[O-].[Ca+2]`, the IC50 is more than 46 µM.

Compound `CN(C)C(=O)COC(=O)Cc1ccc(OC(=O)c2ccc(NC(=N)N)cc2)cc1.CS(=O)(=O)O` came in with an IC50 of more than 46 µM.

Compound `CCN(CC)CCOc1ccccc1OC` registered an IC50 of more than 46 µM.

For `O=C(C)O[C@@H]([C@H]4[N@@+]6(CCCCC6)C)[C@](CC5)(C)[C@](C4)([H])[C@@]3([H])[C@@]5([H])[C@@]2(C)C[C@@H]([C@@H](OC(C)=O)C[C@@]([H])2CC3)N1CCCCC1.[Br-]`, the 50% inhibitory concentration (IC50) is more than 46 µM.
